What follows are compounds tested against T1, Cyclooxygenase (Bos taurus, UniProt O62664+O62698) (assay: Compound was evaluated for inhibition against cyclooxygenase of bovine seminal vesicles).
T1 sequence (O62664 whole entry): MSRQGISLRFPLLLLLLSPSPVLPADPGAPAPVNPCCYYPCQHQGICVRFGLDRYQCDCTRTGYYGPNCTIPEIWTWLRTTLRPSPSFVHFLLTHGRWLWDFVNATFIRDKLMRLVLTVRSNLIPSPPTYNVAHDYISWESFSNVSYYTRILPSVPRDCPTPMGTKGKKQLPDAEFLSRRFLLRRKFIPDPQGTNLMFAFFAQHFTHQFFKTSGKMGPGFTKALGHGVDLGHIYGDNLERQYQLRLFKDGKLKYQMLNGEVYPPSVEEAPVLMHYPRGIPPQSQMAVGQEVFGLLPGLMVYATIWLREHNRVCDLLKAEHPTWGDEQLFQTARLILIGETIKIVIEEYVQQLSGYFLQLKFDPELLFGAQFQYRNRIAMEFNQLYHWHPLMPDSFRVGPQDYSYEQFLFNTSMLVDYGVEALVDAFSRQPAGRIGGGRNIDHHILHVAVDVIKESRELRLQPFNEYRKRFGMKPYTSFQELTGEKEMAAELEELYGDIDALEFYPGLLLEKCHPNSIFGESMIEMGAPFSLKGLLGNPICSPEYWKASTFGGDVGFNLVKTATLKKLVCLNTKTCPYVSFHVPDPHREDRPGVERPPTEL
T1 sequence (O62698 whole entry): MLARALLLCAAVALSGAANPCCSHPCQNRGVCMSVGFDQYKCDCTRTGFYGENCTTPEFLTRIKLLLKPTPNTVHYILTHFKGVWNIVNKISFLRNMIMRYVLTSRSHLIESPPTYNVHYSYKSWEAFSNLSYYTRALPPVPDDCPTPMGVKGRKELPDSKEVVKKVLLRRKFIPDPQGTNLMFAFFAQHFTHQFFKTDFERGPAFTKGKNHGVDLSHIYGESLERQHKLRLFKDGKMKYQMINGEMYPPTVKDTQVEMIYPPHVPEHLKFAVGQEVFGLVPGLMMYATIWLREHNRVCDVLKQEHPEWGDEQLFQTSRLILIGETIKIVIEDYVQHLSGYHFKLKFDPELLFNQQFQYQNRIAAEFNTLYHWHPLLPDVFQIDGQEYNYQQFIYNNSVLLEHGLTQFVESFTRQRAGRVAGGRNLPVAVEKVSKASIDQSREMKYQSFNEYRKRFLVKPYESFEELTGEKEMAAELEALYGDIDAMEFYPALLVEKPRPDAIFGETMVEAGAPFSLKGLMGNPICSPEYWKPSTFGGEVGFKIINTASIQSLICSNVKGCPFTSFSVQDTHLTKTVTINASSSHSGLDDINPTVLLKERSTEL
Type: protein assay

IC50 [µM]	Structure (SMILES)
> 750	O=C(/C=C\N(O)Cc1ccccc1)c1ccc(F)cc1
> 750	CC(=O)ON(/C=C\C(=O)c1ccc(F)cc1)Cc1ccccc1
> 750	CON(/C=C\C(=O)c1ccc(F)cc1)Cc1ccccc1
6.9	O=C1CCN(c2ccccc2)N1 [PHENIDONE]
> 750	CC(c1cc2ccccc2s1)N(O)C(N)=O (configuration not stated) [ZILEUTON]
> 750	O=C(/C=C\N(O)C1CCCCC1)c1ccc(F)cc1

What follows are compounds tested against T2, Polyunsaturated fatty acid 5-lipoxygenase (Rattus norvegicus, UniProt P12527) (assay: Inhibition of 5-Lipoxygenase of rat basophilic leukemia cells).
T2 sequence (P12527 whole entry): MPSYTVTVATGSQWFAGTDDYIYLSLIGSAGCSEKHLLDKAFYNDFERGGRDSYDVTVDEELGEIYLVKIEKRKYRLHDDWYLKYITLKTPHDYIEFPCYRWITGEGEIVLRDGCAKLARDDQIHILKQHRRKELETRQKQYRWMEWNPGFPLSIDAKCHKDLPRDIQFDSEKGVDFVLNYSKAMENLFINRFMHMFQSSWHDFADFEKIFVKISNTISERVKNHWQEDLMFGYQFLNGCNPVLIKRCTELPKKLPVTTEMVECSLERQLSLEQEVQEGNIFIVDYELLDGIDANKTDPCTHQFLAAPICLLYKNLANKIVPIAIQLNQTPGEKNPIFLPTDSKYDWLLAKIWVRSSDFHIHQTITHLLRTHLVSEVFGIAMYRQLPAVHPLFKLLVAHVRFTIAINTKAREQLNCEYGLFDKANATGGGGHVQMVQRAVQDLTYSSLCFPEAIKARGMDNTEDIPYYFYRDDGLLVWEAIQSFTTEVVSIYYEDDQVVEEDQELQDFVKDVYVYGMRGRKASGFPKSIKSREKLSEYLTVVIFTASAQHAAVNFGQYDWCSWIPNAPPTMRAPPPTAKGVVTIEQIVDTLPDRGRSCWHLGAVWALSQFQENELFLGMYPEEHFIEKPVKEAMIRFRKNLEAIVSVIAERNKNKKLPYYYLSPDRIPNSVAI
Type: cell-based, RBL-1

IC50 [µM]	Structure (SMILES)
0.3	C/C(=C/N(O)Cc1ccccc1)C(=O)c1ccc(F)cc1

Reference: ChEMBL document CHEMBL1126456, “Vinylogous hydroxamic acids: 5-lipoxygenase inhibitors” (Bioorg Med Chem Lett, 1992)
